Measured values as given in patent US12398118B2, “Rho-associated protein kinase inhibitor, pharmaceutical composition comprising same, and use thereof” (BEIJING TIDE PHARMACEUTICAL CO., LTD., priority 2018, dated 2025).

Tests used:
[1] = target: ROCK2 (Homo sapiens, UniProt O75116); experiment: ROCK2 kinase IC50, HTRF KinEASE-STK S2 kit; assay type: biochemical; settings: 2 hours at room temperature
Experimental: (§1) The kinase IC50 was determined by a commercialized CISBIO kinase detection kit, HTRF KinEASE-STK S2 kit (62ST2PEC). ROCK2 (01-119) employed in the reaction was purchased from Carna Biosciences.
(§2) Before the assay, the following working solutions as needed were formulated with corresponding reagents according to the instruction of the kinase detection kit: 1×kinase buffer, 5×STK-S2 substrate working solution (1.5 μM) and 5×ATP working solution (1.5 μM), 5×ROCK2 kinase working solution, 4×Streptavidin-XL665 working solution, and 4×STK-Ab-Cryptate 2 detection solution. Then the assay was performed according to the following procedure.
(§3) A solution of a compound at a concentration of 10000 nM was prepared with the 1×kinase buffer containing 2.5% DMSO. Gradient dilution of the solution of the compound was performed with the kinase buffer containing DMSO, so as to obtain solutions of a test compound at 9 different concentrations. In addition to wells of test compounds, a positive well (containing all the reagents except the compound) and a negative well (containing all the reagents except the test compound and kinase) were set. Except for the control wells (positive and negative wells), a solution of a test compound (4 μL) was added to each of the reaction wells, and a solution of 2.5% DMSO was added to the control wells. Then the substrate (2 μM, i.e., 2 μL 5×STK-S2 substrate working solution) was added to each of the reaction wells. The 5×ROCK2 kinase working solution (2 μL, containing 1.4 ng ROCK2 kinase) was added to each of the reaction wells except for the negative well, the volume of which was made up with the 1×kinase buffer (2 μL). The 5×ATP working solution (2 μL) was added to each of the reaction wells, and the mixtures were incubated at room temperature for 2 hours. After the kinase reaction was complete, the 4×Streptavidin-XL665 working solution was added to each of the reaction wells, the solutions were mixed, followed by immediate addition of the 4×STK-Ab-Cryptate 2 detection solution (5 μL), and the mixtures were incubated at room temperature for 1 hour. The fluorescence signal was read on ENVISION (Perkinelmer) (excitation wavelength: 320 inn, and emission wavelength: 665 nm and 615 nm). The inhibitory rate in each well was calculated based on the fluorescence intensity value: ER (Emission Ratio)_(fluorescence intensity at 665 nm/fluorescence intensity at 615 nm); inhibitory rate=(ERpositive−ERtest compound)/(ERpositive−ERnegative)*100%. Curves were plotted and fitted to obtain the median inhibitory concentration (IC50) of each teat compound with the PRISM 5.0 software. According to a biological test method similar to the above, the IC50 values of the compounds on ROCK1 were also tested.

[2] = target: ROCK1 (Homo sapiens (Human), UniProt Q13464); experiment: ROCK1 kinase IC50, biological test method similar to ROCK2 assay; assay type: biochemical
Experimental: as §1, §2, §3

ROCK2, sequence (O75116 whole entry, looked up): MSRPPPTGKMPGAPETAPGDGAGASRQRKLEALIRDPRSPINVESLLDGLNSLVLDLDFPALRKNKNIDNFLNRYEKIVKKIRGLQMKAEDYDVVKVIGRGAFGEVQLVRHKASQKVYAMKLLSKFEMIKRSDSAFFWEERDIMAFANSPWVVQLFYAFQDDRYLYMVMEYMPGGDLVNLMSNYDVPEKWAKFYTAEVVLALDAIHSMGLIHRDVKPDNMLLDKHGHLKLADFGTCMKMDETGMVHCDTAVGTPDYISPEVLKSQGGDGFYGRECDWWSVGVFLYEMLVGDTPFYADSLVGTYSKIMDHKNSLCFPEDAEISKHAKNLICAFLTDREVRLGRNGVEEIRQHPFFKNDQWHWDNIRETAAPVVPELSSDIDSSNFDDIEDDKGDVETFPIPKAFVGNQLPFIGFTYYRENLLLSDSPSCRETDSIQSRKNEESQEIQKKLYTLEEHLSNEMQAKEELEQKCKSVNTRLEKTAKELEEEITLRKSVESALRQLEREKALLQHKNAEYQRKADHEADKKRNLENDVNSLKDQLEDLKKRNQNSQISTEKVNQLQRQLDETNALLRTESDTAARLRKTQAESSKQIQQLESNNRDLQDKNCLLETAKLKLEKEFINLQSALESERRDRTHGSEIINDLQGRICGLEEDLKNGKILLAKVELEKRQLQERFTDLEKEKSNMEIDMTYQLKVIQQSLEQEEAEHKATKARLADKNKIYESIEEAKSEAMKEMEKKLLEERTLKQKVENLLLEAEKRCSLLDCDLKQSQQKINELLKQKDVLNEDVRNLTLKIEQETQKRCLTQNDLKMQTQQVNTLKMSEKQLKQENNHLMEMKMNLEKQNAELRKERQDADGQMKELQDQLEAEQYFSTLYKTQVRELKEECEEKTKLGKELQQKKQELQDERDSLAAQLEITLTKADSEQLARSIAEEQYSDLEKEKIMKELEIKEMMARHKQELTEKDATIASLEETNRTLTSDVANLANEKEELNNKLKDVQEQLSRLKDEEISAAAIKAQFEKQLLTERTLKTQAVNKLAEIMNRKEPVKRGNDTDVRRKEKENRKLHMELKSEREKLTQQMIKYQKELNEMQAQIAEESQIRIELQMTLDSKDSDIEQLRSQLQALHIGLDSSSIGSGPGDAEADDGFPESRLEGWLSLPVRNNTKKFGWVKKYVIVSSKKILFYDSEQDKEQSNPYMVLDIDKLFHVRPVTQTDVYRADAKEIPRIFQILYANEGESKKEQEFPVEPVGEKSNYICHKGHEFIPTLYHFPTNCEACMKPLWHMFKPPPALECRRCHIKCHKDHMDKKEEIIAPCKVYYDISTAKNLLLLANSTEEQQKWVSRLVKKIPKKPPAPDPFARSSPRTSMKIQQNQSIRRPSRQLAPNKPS
ROCK1, sequence (Q13464 whole entry, species assumed): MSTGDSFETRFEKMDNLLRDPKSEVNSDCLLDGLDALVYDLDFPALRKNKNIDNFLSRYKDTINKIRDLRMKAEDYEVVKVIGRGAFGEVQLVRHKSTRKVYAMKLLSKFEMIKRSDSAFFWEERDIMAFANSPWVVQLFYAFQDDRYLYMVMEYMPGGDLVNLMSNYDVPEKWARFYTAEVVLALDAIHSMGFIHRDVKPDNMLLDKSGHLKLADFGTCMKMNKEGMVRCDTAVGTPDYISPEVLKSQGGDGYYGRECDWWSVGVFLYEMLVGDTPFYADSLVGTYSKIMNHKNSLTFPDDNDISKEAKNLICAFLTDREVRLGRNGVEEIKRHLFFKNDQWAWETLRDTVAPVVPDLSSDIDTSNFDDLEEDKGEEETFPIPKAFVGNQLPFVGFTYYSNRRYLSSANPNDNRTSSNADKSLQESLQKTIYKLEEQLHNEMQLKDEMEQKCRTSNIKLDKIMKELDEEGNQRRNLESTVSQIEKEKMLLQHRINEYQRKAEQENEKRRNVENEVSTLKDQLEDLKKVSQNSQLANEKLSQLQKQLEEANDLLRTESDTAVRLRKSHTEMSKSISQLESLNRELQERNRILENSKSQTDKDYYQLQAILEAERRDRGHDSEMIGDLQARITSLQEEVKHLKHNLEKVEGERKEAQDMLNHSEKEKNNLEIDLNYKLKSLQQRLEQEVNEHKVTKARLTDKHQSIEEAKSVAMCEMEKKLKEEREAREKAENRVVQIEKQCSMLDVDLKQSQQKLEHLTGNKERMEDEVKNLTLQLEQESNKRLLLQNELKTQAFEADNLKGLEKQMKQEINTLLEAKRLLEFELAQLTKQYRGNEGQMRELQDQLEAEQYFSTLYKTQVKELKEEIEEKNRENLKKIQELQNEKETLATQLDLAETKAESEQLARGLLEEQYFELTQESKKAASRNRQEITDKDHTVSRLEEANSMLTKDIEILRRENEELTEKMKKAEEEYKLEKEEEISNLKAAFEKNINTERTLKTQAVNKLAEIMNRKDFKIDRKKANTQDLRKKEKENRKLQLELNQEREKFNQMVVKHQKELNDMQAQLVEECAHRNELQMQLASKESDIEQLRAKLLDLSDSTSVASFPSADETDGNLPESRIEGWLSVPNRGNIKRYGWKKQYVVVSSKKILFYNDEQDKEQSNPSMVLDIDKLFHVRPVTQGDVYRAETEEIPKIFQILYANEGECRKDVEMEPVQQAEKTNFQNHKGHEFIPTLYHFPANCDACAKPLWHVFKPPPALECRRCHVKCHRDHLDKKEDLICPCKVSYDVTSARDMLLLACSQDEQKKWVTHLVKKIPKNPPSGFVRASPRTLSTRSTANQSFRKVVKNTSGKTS

Structure (SMILES): O=C(c1ccc2c(c1)CN(c1nccc(Nc3ccc4c(=O)[nH]ccc4c3)n1)C2)N1CC(F)(F)C1 [C1, 6-((2-(5-(3,3-difluoroazetidine-1-carbonyl)isoindolin-2-yl)pyrimidin-4-yl)amino)isoquinolin-1(2H)-one]
- IC50 [1]: 129 nM
- IC50 [2]: > 10000 nM

Structure (SMILES): O=C1NCc2cc(Nc3nc(-c4ccc5c(c4)CN(C(=O)C4CC(F)(F)C4)C5)ncc3F)ccc21 [C3, 5-((2-(2-(3,3-difluoroo-cyclobutane-1-carbonyl)isoindolin-5-yl)-5-fluoro-pyrimidin-4-yl)amino) isoindolin-1-one]
- IC50 [1]: 287 nM
- IC50 [2]: > 10000 nM

Structure (SMILES): O=C(C1CC(F)(F)C1)N1Cc2ccc(-c3ncc(F)c(Nc4ccc5c(=O)[nH]cc(Cl)c5c4)n3)cc2C1 [C5, 4-chloro-6-((2-(2-(3,3-difluoroo-cyclobutane-1-carbonyl)isoindolin-5-yl)-5-fluoro-pyrimidin-4-yl)amino) isoquinolin-1(2H)-one]
- IC50 [1]: 13 nM
- IC50 [2]: > 10000 nM

Structure (SMILES): O=C(C1CC(F)(F)C1)N1Cc2ccc(-c3ncc(F)c(Nc4ccc5c(=O)[nH]cnc5c4)n3)cc2C1 [C6, 7-((2-(2-(3,3-difluoroo-cyclobutane-1-carbonyl)isoindolin-5-yl)-5-fluoro-pyrimidin-4-yl)amino) quinazolin-4(3H)-one]
- IC50 [1]: 76 nM
- IC50 [2]: > 10000 nM

Structure (SMILES): O=C(C1CC(F)(F)C1)N1Cc2ccc(-c3ncc(F)c(Nc4ccc5c(=O)[nH]ccc5c4)n3)cc2C1 [C8, 6-((2-(2-(3,3-difluoroo-cyclobutane-l-carbonyl)isoindolin-5-yl)-5-fluoro-pyrimidin-4-yl)amino) isoquinolin-1(2H)-one]
- IC50 [1]: 16 nM
- IC50 [2]: > 10000 nM

Structure (SMILES): O=C(c1cc2ccc(-c3ncc(F)c(Nc4ccc5c(=O)[nH]ccc5c4)n3)cc2[nH]1)N1CC(F)(F)C1 [C9, 6-((2-(2-(3,3-difluoroazetidine-1-carbonyl)-1H-indol-6-yl)-5-fluoropyrimidin-4-yl)amino)isoquinolin-1(2H)-one]
- IC50 [1]: 4 nM
- IC50 [2]: > 10000 nM

Structure (SMILES): O=C(OC1CC(F)(F)C1)N1Cc2ccc(-c3ncc(F)c(Nc4ccc5c(=O)[nH]ccc5c4)n3)cc2C1 [C10, 3,3-difluorocyclobutyl 5-(5-fluoro-4-((1-oxo-1,2-dihydroisoquinolin-6-yl)amino)pyrimidin-2-yl)isoindoline-2-carboxylate]
- IC50 [1]: 11 nM
- IC50 [2]: > 10000 nM

Structure (SMILES): CC(C)(C)OC(=O)N1Cc2ccc(-c3ncc(F)c(Nc4ccc5c(=O)[nH]ccc5c4)n3)cc2C1 [C11, tert-butyl 5-(5-fluoro-4-((1-oxo-1,2-dihydro-isoquinolin-6-yl)amino)pyrimiclin-2-yl) isoindoline-2-carboxylate]
- IC50 [1]: 34 nM
- IC50 [2]: > 10000 nM

Structure (SMILES): O=C(C1CC(F)(F)C1)N1Cc2ccc(-c3ncc(F)c(Nc4ccc5c(=O)[nH]ncc5c4)n3)cc2C1 [C12, 6-((2-(2-(3,3-difluoroo-cyclobutane-1-carbonyl)isoindolin-5-yl)-5-fluoro-pyrimidin-4-yl)amino) phthalazin-1(2H)-one]
- IC50 [1]: 17 nM
- IC50 [2]: > 10000 nM

Structure (SMILES): O=C(C1CCC(F)(F)CC1)N1Cc2ccc(-c3ncc(F)c(Nc4ccc5c(=O)[nH]ccc5c4)n3)cc2C1 [C13, 6-((2-(2-(4,4-difluorocyclohexane-1-carbonyl)isoindolin-5-yl)-5-fluoropyrimidin-4-yl)amino)isoquinolin-1(2H)-one]
- IC50 [1]: 38 nM
- IC50 [2]: > 10000 nM

Structure (SMILES): O=C1NCCc2cc(Nc3nc(-c4ccc5c(c4)CN(C(=O)OC4CC(F)(F)C4)C5)ncc3F)ccc21 [C14, 3,3-difluoro-cyclobutyl 5-(5-fluoro-4-((1-oxo-1,2,3,4-tetrahydro-isoquinolin-6-yl)amino)pyrimidin-2-yl) isoindoline-2-carboxylate]
- IC50 [1]: 28 nM
- IC50 [2]: > 10000 nM

Structure (SMILES): O=C(C1CC(F)(F)C1)N1CCc2cc(-c3ncc(F)c(Nc4ccc5c(=O)[nH]ccc5c4)n3)ccc21 [C15, 6-((2-(1-(3,3-difluoroo-cyclobutane-1-carbonyl)indolin-5-yl)-5-fluoro-pyrimidin-4-yl)amino) isoquinolin-1-(2H)-one]
- IC50 [1]: 79 nM
- IC50 [2]: > 10000 nM

Structure (SMILES): O=C(OC1CC(F)(F)C1)N1CCc2cc(-c3ncc(F)c(Nc4ccc5c(=O)[nH]ccc5c4)n3)ccc21 [C16]
- IC50 [1]: 19 nM
- IC50 [2]: > 10000 nM

Structure (SMILES): CC(C)(C)OC(=O)N1CCc2cc(-c3ncc(F)c(Nc4ccc5c(=O)[nH]ccc5c4)n3)ccc21 [C17]
- IC50 [1]: 421 nM
- IC50 [2]: > 10000 nM

Structure (SMILES): CC(OC(=O)N1Cc2ccc(-c3ncc(F)c(Nc4ccc5c(=O)[nH]ccc5c4)n3)cc2C1)C(F)(F)F (centres unmarked) [C18, 1,1,1-trifluoro-propan-2-yl 5-(5-fluoro-4-((1-oxo-1,2-dihydro-isoquinolin-6-yl)amino)pyrimidin-2-yl) isoindoline-2-carboxylate]
- IC50 [1]: 31 nM
- IC50 [2]: > 10000 nM

Structure (SMILES): O=C(OC1CCOC1)N1Cc2ccc(-c3ncc(F)c(Nc4ccc5c(=O)[nH]ccc5c4)n3)cc2C1 (centres unmarked) [C19, tetra-hydrofuran-3-yl 5-(5-fluoro-4-((1-oxo-1,2-dihydro-isoquinolin-6-yl)amino)pyrimidin-2-yl) isoindoline-2-carboxylate]
- IC50 [1]: 25 nM
- IC50 [2]: > 10000 nM

Structure (SMILES): COCn1c(C(=O)N2CC(F)(F)C2)cc2ccc(-c3ncc(F)c(Nc4ccc5c(=O)[nH]ccc5c4)n3)cc21 [C20, 6-((2-(2-(3,3-difluoro-azetidine-1-carbonyl)-1-(methoxy-methyl)-1H-indol-6-yl)-5-fluoro-pyrimidin-4-yl)amino) isoquinolin-1(2H)-one]
- IC50 [1]: 238 nM
- IC50 [2]: > 10000 nM

Structure (SMILES): COCn1c(C(=O)N2CC(F)(F)C2)cc2ccc(-c3nccc(Nc4ccc5c(=O)[nH]ccc5c4)n3)cc21 [C21, 6-((2-(2-(3,3-difluoro-azetidine-1-carbonyl)-1-(methoxy-methyl)-1H-indol-6-yl)pyrimidin-4-yl)amino) isoquinolin-1(2H)-one]
- IC50 [1]: 108 nM
- IC50 [2]: > 10000 nM

Structure (SMILES): COCn1c(C(=O)N2CC(F)(F)C2)cc2ccc(-c3ncnc(Nc4ccc5c(=O)[nH]ccc5c4)n3)cc21 [C22, 6-((4(2-(3,3-difluoro-azetidine-1-carbonyl)-1-(methoxy-methyl)-1H-indol-6-yl)-1,3,5-triazin-2-yl)amino) isoquinolin-1(2H)-one]
- IC50 [1]: 130 nM
- IC50 [2]: > 10000 nM

Structure (SMILES): O=C(OC1CC(F)(F)C1)N1CCc2cc(-c3ncc(F)c(Nc4ccc5c(=O)[nH]ccc5c4)n3)ccc2C1 [C23, 3,3-difluoro-cyclobutyl 6-(5-fluoro-4-((1-oxo-1,2-dihydro-isoquinolin-6-yl)amino)pyrimidin-2-yl)-3,4-dihydro-isoquinolin-2(1H)-carboxylate]
- IC50 [1]: 173 nM
- IC50 [2]: > 10000 nM

Structure (SMILES): CC(C)(C)OC(=O)N1CCc2cc(-c3ncc(F)c(Nc4ccc5c(=O)[nH]ccc5c4)n3)ccc2C1 [C24, tert-butyl 6-(5-fluoro-4-((1-oxo-1,2-dihydro-isoquinolin-6-yl)amino)pyrimidin-2-yl)-3,4-dihydro-isoquinolin-2(1H)-carboxylate]
- IC50 [1]: 222 nM
- IC50 [2]: > 10000 nM

Structure (SMILES): O=C(OC1CC(F)(F)C1)N1CCc2cc(-c3nccc(Nc4ccc5c(=O)[nH]ccc5c4)n3)ccc2C1 [C25, 3,3-difluoro-cyclobutyl 6-(4-((1-oxo-1,2-dihydro-isoquinolin-6-yl)amino)pyrimidin-2-yl)-3,4-dihydro-isoquinolin-2(1H)-carboxylate]
- IC50 [1]: 45 nM
- IC50 [2]: > 10000 nM

Structure (SMILES): O=C(OC1CCC1)N1CCc2cc(-c3ncc(F)c(Nc4ccc5c(=O)[nH]ccc5c4)n3)ccc2C1 [C26, cyclobutyl 6-(5-fluoro-4-((1-oxo-1,2-dihydro-isoquinolin-6-yl)amino)pyrimidin-2-yl)-3,4-dihydro-isoquinolin-2(1H)-carboxylate]
- IC50 [1]: 356 nM
- IC50 [2]: > 10000 nM

Structure (SMILES): O=C(OC1CC(F)(F)C1)N1CCc2sc(-c3ncc(F)c(Nc4ccc5c(=O)[nH]ccc5c4)n3)cc2C1 [C27, 3,3-difluorocyclobutyl 2-(5-fluoro-4-((1-oxo-1,2-dihydroisoquinolin-6-yl)amino)pyrimidin-2-yl)-6,7-dihydrothieno[3,2-c]pyridine-5(4H)-carboxylate]
- IC50 [1]: 8 nM
- IC50 [2]: > 10000 nM

Structure (SMILES): O=C1NCc2cc(Nc3nc(-c4ccc5c(c4)CN(C(=O)OC4CC(F)(F)C4)C5)ncc3F)ccc21 [C30, 3,3-difluoro-cyclobutyl 5-(5-fluoro-4-((1-oxo-isoindolin-5-yl)amino)pyrimidin-2-yl) isoindoline-2-carboxylate]
- IC50 [1]: 216 nM
- IC50 [2]: > 10000 nM
